Legend:
Assay type in all cases: cell-based
[1] = tested on: Proteus vulgaris; experiment: MIC against Gram-negative bacteria: Proteus vulgaris
Outline: (§1)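 Bacteria grown in LB at 37° C with shaking to McFarland 0.5, pelleted and resuspended in fresh LB, then seeded at 5×10^5 CFU/mL per well. Purified recombinant human EGF domain proteins were two-fold serially diluted in triplicate and plates shaken at 37° C, 175 rpm. MIC is the lowest protein concentration with no bacterial growth.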

[2] = tested on: Citrobacter diversus; experiment: MIC against Gram-negative bacteria: Citrobacter diversus
Outline: as §1

[3] = tested on: E. coli DH5α; experiment: Antibacterial activity: MIC and growth curve against E. coli DH5α in 96-well plate; conditions: minimal inhibitory concentration against E. coli DH5α; 96-well plate, 5×10^5 CFU/mL, 37° C., judged after 8 h
Outline: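 Log-phase bacteria (OD600 ~0.5) resuspended in LB at 5×10^5 CFU/mL, exposed to recombinant protein at 50, 25, 12.5 μg/mL final in triplicate, 37 °C shaking at 175 rpm. OD600 read every 30 min; MIC is lowest concentration showing no growth.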

[4] = tested on: Pseudomonas aeruginosa; experiment: MIC against Gram-negative bacteria: Pseudomonas aeruginosa
Outline: as §1

[5] = tested on: E. coli BL21; experiment: MIC against Gram-negative bacteria: E. coli BL21
Outline: as §1

[6] = tested on: Enterobacter cloacae; experiment: MIC against Gram-negative bacteria: Enterobacter cloacae
Outline: as §1

[7] = tested on: Serratia marcescens; experiment: MIC against Gram-negative bacteria: Serratia marcescens
Outline: as §1

[8] = tested on: Klebsiella pneumonia; experiment: MIC against Gram-negative bacteria: Klebsiella pneumonia
Outline: as §1

[9] = tested on: Proteus mirabilis; experiment: MIC against Gram-negative bacteria: Proteus mirabilis
Outline: as §1

[10] = tested on: Aeromonas hydrophila; experiment: MIC against Gram-negative bacteria: Aeromonas hydrophila
Outline: as §1

[11] = tested on: Moraxella catarrhalis; experiment: MIC against Gram-negative bacteria: Moraxella catarrhalis
Outline: as §1

[12] = Proteus vulgaris, 96-well plate, 5×10^5 CFU/mL, 37° C., 10 h
[13] = Citrobacter diversus, 96-well plate, 5×10^5 CFU/mL, 37° C., 10 h
[14] = Pseudomonas aeruginosa, 96-well plate, 5×10^5 CFU/mL, 37° C., 10 h
[15] = E. coli BL21, 96-well plate, 5×10^5 CFU/mL, 37° C., 10 h
[16] = Enterobacter cloacae, 96-well plate, 5×10^5 CFU/mL, 37° C., 10 h
[17] = Serratia marcescens, 96-well plate, 5×10^5 CFU/mL, 37° C., 10 h
[18] = Klebsiella pneumonia, 96-well plate, 5×10^5 CFU/mL, 37° C., 10 h
[19] = Proteus mirabilis, 96-well plate, 5×10^5 CFU/mL, 37° C., 10 h
[20] = Aeromonas hydrophila, 96-well plate, 5×10^5 CFU/mL, 37° C., 10 h
[21] = Moraxella catarrhalis, 96-well plate, 5×10^5 CFU/mL, 37° C., 10 h
[22] = 96-well plate, 5×10^5 CFU/mL, 37° C., 10 h
[23] = 10 h cultivation at 37° C., 5×10^5 CFU/mL, two-fold serial dilution

Substance: PRT1271 (DTNECSINNGGCQQVCVNTVGSYECQCHPGYKLHWNKKDCV; listed as Homo sapiens)
- MIC against P. vulgaris [1, 12]: 50 µg/mL
- MIC against C. diversus [2, 13]: 12.5 µg/mL
- MIC [3]: 25 µg/mL
- MIC against P. aeruginosa [4, 14]: 12.5 µg/mL
- MIC against E. coli BL21 [5, 15]: 50 µg/mL
- MIC against E. cloacae [6, 16]: 12.5 µg/mL
- MIC against S. marcescens [7, 17]: 12.5 µg/mL
- MIC against K. pneumonia [8, 18]: 50 µg/mL
- MIC against P. mirabilis [9, 19]: 12.5 µg/mL
- MIC against A. hydrophila [10, 20]: 50 µg/mL
- MIC against M. catarrhalis [11, 21]: 50 µg/mL

Substance: PRT548 (CPCPLSVPSNNFAEGCVLRGGRTQCLCKPGYAGASCERCAPGFFGNPLVLGSSCQP; listed as Homo sapiens)
- MIC against P. vulgaris [1, 22]: 25 µg/mL
- MIC against C. diversus [2, 22]: 50 µg/mL
- MIC [3]: 12.5 µg/mL
- MIC against P. aeruginosa [4, 22]: 50 µg/mL
- MIC against E. coli BL21 [5, 22]: 25 µg/mL
- MIC against E. cloacae [6, 22]: 12.5 µg/mL
- MIC against S. marcescens [7, 22]: 50 µg/mL
- MIC against K. pneumonia [8, 22]: 25 µg/mL
- MIC against P. mirabilis [9, 22]: 12.5 µg/mL
- MIC against A. hydrophila [10, 22]: 25 µg/mL
- MIC against M. catarrhalis [11, 22]: 25 µg/mL

Substance: PRT1183 (NIDDCLGQPCRNGGTCIDEVDAFRCFCPSGWEGELCD; listed as Homo sapiens)
- MIC P. vulgaris [1, 23]: 25 µg/mL
- MIC C. diversus [2, 23]: 12.5 µg/mL
- MIC [3]: 25 µg/mL
- MIC P. aeruginosa [4, 23]: 25 µg/mL
- MIC E. coli BL21 [5, 23]: 50 µg/mL
- MIC E. cloacae [6, 23]: 50 µg/mL
- MIC S. marcescens [7, 23]: 12.5 µg/mL
- MIC K. pneumonia [8, 23]: 12.5 µg/mL
- MIC P. mirabilis [9, 23]: 50 µg/mL
- MIC A. hydrophila [10, 23]: 25 µg/mL
- MIC M. catarrhalis [11, 23]: 25 µg/mL

Substance: PRT32 (RCEAQKWGPECNHLCTACMNNGVCHEDTGECICPPGFMGRTCE; listed as Homo sapiens)
- MIC (μg/mL) P. vulgaris [1, 12]: 25 µg/mL
- MIC (μg/mL) C. diversus [2, 13]: 12.5 µg/mL
- MIC [3]: 12.5 µg/mL
- MIC (μg/mL) P. aeruginosa [4, 14]: 12.5 µg/mL
- MIC (μg/mL) E. coli BL21 [5, 15]: 50 µg/mL
- MIC (μg/mL) E. cloacae [6, 16]: 25 µg/mL
- MIC (μg/mL) S. marcescens [7, 17]: 50 µg/mL
- MIC (μg/mL) K. pneumonia [8, 18]: 12.5 µg/mL
- MIC (μg/mL) P. mirabilis [9, 19]: 12.5 µg/mL
- MIC (μg/mL) A. hydrophila [10, 20]: 50 µg/mL
- MIC (μg/mL) M. catarrhalis [11, 21]: 50 µg/mL

Substance: PRT1293 (KLDFCAQDLNPCQHDSKCILTPKGFKCDCTPGYVGEHCD; listed as Homo sapiens)
- MIC against P. vulgaris [1, 12]: 50 µg/mL
- MIC against C. diversus [2, 13]: 12.5 µg/mL
- MIC [3]: 25 µg/mL
- MIC against P. aeruginosa [4, 14]: 25 µg/mL
- MIC against E. coli BL21 [5, 15]: 12.5 µg/mL
- MIC against E. cloacae [6, 16]: 12.5 µg/mL
- MIC against S. marcescens [7, 17]: 12.5 µg/mL
- MIC against K. pneumonia [8, 18]: 50 µg/mL
- MIC against P. mirabilis [9, 19]: 12.5 µg/mL
- MIC against A. hydrophila [10, 20]: 50 µg/mL
- MIC against M. catarrhalis [11, 21]: 12.5 µg/mL

Substance: PRT909 (LVDECSPSPCQNGATCTDYLGGYSCKCVAGYHGVNCS; listed as Homo sapiens)
- MIC ([1]; P. vulgaris, 10 h cultivation at 37° C.): 50 µg/mL
- MIC ([2]; C. diversus, 10 h cultivation at 37° C.): 50 µg/mL
- MIC [3]: 50 µg/mL
- MIC ([4]; P. aeruginosa, 10 h cultivation at 37° C.): 12.5 µg/mL
- MIC ([5]; E. coli BL21, 10 h cultivation at 37° C.): 25 µg/mL
- MIC ([6]; E. cloacae, 10 h cultivation at 37° C.): 25 µg/mL
- MIC ([7]; S. marcescens, 10 h cultivation at 37° C.): 12.5 µg/mL
- MIC ([8]; K. pneumonia, 10 h cultivation at 37° C.): 50 µg/mL
- MIC ([9]; P. mirabilis, 10 h cultivation at 37° C.): 12.5 µg/mL
- MIC ([10]; A. hydrophila, 10 h cultivation at 37° C.): 12.5 µg/mL
- MIC ([11]; M. catarrhalis, 10 h cultivation at 37° C.): 25 µg/mL
